Measured values as given in patent US20110318768A1, “METHOD FOR DETERMINING SENSITIVITY OF TUMOR CELLS TO TYROSINE KINASE INHIBITOR AND COMPUTER PROGRAM PRODUCT” (SYSMEX CORPORATION, priority 2010, published 2011).

Tests used:
[1] = system: tyrosine kinase in measurement samples of lapatinib-insensitive cell line group; assay: Tyrosine kinase activity inhibition, group comparison (FIG. 3); assay type: biochemical
Experimental: (§1) After shaking the measuring plate at 37° C. and 400 rpm for 60 minutes, the solution was removed from the measuring plate, and the wells were washed with 300 μl of TBS-T three times. 100 μl of Starting Block T20 (TBS) (#37543: Pierce) as a blocking solution was added to the wells, followed by blocking at 37° C. and 400 rpm for 10 minutes. The blocking solution was removed from the measuring plate. 100 μl of a solution prepared by diluting HRP-labeled anti-phosphorylated tyrosine antibody (#sc-508 HRP: Santa Cruz) with Starting Block T20 (TBS) at a ratio of 1:1000 was added to the wells, followed by shaking at 37° C. and 400 rpm for 90 minutes. Then, the wells were washed with 300 μl of TBS-T five times. […] Thereafter, the emission from the wells was measured by a GENios microplate reader (manufactured by Tecan Trading AG). The inhibitory capacity of the kinase inhibitors in the measurement sample was evaluated by an inhibition rate (value of “100−{(measurement value of activity in the presence of inhibitors)/(measurement value of activity in the absence of inhibitors)}×100”) calculated base on a ratio of the measurement value of tyrosine kinase activity in the presence of the inhibitors and the measurement value of the control (in the absence of the inhibitors). […]

[2] = system: tyrosine kinase in measurement samples of lapatinib-sensitive cell line group; assay: as above; assay type: biochemical
Experimental: as §1

tyrosine kinase of MCF7 = conditions: US 2011027809; cited from earlier work
tyrosine kinase of T47D = conditions: US 2011027809; cited from earlier work
[3] = system: tyrosine kinase of MDA-MB231; conditions: US 2011027809; cited from earlier work
[4] = system: tyrosine kinase of BT-474; conditions: US 2011027809; cited from earlier work
[5] = system: tyrosine kinase of SK-Br-3; conditions: US 2011027809; cited from earlier work

COc1cc2ncnc(Nc3ccc(Oc4ccccc4)cc3)c2cc1OC [Inhibitor 10, 4-(4′-phenoxyanilino)-6,7-dimethoxyquinazoline]
inhibitory effect of the Src inhibitor on the kinase activity [1]: high
inhibitory effect of the Src inhibitor on the kinase activity [2]: low
tyrosine kinase activity inhibitory effects caused by the Src inhibitor (tyrosine kinase of MCF7): low
tyrosine kinase activity inhibitory effects caused by the Src inhibitor (tyrosine kinase of T47D): low
tyrosine kinase activity inhibitory effects caused by the Src inhibitor [3]: low
tyrosine kinase activity inhibitory effects caused by the Src inhibitor [4]: high
tyrosine kinase activity inhibitory effects caused by the Src inhibitor [5]: high
